In patent US6426229B1, “Chelating agent and detergent comprising the same” (Mitsubishi Rayon Co., Ltd., priority 1995, dated 2002):
One block for each compound: values may come before it.

Experiments:
[1] = Storage of aqueous solution or slurry for 60 days: HPLC analysis of components and appearance; type: physicochemical
[2] = Compression strength (hardening property) of powder stored under load for 2 months; type: physicochemical; conditions: 20-30° C., relative humidity 40-70%
In short: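 A 500 g powder sample was levelled to 20 cm×20 cm in a polyethylene bag, air expelled, sealed, then enclosed in a sealed kraft bag at 20-30° C. and 40-70% relative humidity. The bag lay flat under a loaded plate for 2 months at those conditions, after which 4 cm×4 cm×2 cm test pieces were cut out to assess hardening by compression strength.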

[3] = Load 100 (table head [Kg]; text 100 g/cm^2)

SMILES: O=C([O-])CN[C@@H](CC(=O)[O-])C(=O)[O-].[Na+].[Na+].[Na+] [Example 93, trisodium salt of (S)-aspartic acid-N-monoacetic acid]
- Appearance after kept for 60 days ([1]; keeping temperature 65° C.): Light yellow slurry
- Content of the compound of the formula [I] in aqueous solution after kept for 60 days ([1]; keeping temperature 65° C.): 63.7 wt. %

SMILES: O=C([O-])CN(CC(=O)[O-])c1ccccc1C(=O)[O-].[Fe+3] [compound 42, iron salt of anthranilic acid-N,N-diacetic acid, reference compound]
- Appearance after kept for 60 days ([1]; keeping temperature 40° C.): Blackish brown aqueous solution
- Content of the compound of the formula [I] in aqueous solution after kept for 60 days ([1]; keeping temperature 40° C.): 40.6 wt. %

SMILES: O=C([O-])CC(NCCNC(CC(=O)[O-])C(=O)[O-])C(=O)[O-].[Na+].[Na+].[Na+].[Na+] (stereo not drawn) [Example 122, tetrasodium ethylenediamine-N,N′-disuccinate]
- Appearance after kept for 60 days ([1]; keeping temperature 40° C.): White slurry
- Content of the compound of the formula [I] in aqueous solution after kept for 60 days ([1]; keeping temperature 40° C.): 74.1 wt. %

SMILES: O=C([O-])CN[C@@H](CC(=O)[O-])C(=O)[O-].[Na+].[Na+].[Na+] [compound 34, trisodium salt of (S)-aspartic acid-N-monoacetic acid, reference compound]
- Appearance after kept for 60 days ([1]; keeping temperature 75° C.): Brown aquequs solution
- Content of the compound of the formula [I] in aqueous solution after kept for 60 days ([1]; keeping temperature 75° C.): 30.6 wt. %

SMILES: O=C([O-])CC(NCCCNC(CC(=O)[O-])C(=O)[O-])C(=O)[O-].[Na+].[Na+].[Na+].[Na+] (stereo not drawn) [Example 123, tetrasodium 1,3-propanediamine-N,N′-disuccinate]
- Appearance after kept for 60 days ([1]; keeping temperature 40° C.): White slurry
- Content of the compound of the formula [I] in aqueous solution after kept for 60 days ([1]; keeping temperature 40° C.): 74.1 wt. %

SMILES: O=C([O-])CN(CCS(=O)(=O)[O-])CC(=O)[O-].[Na+].[Na+].[Na+] [Example 103, trisodium salt of taurine-N,N-diacetic acid]
- Appearance after kept for 60 days ([1]; keeping temperature 75° C.): Colorless transparent aqueous solution
- Content of the compound of the formula [I] in aqueous solution after kept for 60 days ([1]; keeping temperature 75° C.): 49.4 wt. %

SMILES: O=C([O-])CN(CCS(=O)(=O)[O-])CC(=O)[O-].[Na+].[Na+].[Na+] [Example 106, trisodium salt of taurine-N,N-diacetic acid]
- Appearance after kept for 60 days ([1]; keeping temperature 65° C.): Light yellow slurry
- Content of the compound of the formula [I] in aqueous solution after kept for 60 days ([1]; keeping temperature 65° C.): 63.7 wt. %

SMILES: O=C([O-])CCN[C@@H](CC(=O)[O-])C(=O)[O-].[Na+].[Na+].[Na+] [Example 91, trisodium salt of (S)-aspartic acid-N-monopropionic acid]
- Appearance after kept for 60 days ([1]; keeping temperature 75° C.): Colorless transparent aqueous solution
- Content of the compound of the formula [I] in aqueous solution after kept for 60 days ([1]; keeping temperature 75° C.): 49.8 wt. %

SMILES: O=C([O-])CC(NCCCNC(CC(=O)[O-])C(=O)[O-])C(=O)[O-].[Na+].[Na+].[Ni+2] [compound 51, nickel disodium (S,S)-1,3-propanediamine-N,N′-disuccinate, reference compound]
- Appearance after kept for 60 days ([1]; keeping temperature 75° C.): Blue transparent aqueous solution
- Content of the compound of the formula [I] in aqueous solution after kept for 60 days ([1]; keeping temperature 75° C.): 38.4 wt. %

SMILES: O=C([O-])CCN[C@@H](CC(=O)[O-])C(=O)[O-].[Na+].[Na+].[Na+] [Example 95, trisodium salt of (S)-aspartic acid-N-monopropionic acid]
- Appearance after kept for 60 days ([1]; keeping temperature 65° C.): Light yellow slurry
- Content of the compound of the formula [I] in aqueous solution after kept for 60 days ([1]; keeping temperature 65° C.): 65.4 wt. %

SMILES: O=C([O-])C[C@@H](C(=O)[O-])N(CC(=O)[O-])CC(=O)[O-].[Na+].[Na+].[Na+].[Na+] [compound 36, tetrasodium salt of (S)-aspartic acid-N,N-diacetic acid, reference compound]
- Appearance after kept for 60 days ([1]; keeping temperature 60° C.): Brown slurry
- Content of the compound of the formula [I] in aqueous solution after kept for 60 days ([1]; keeping temperature 60° C.): 48.3 wt. %

SMILES: O=C([O-])CN[C@@H](CC(=O)[O-])C(=O)[O-].[Na+].[Na+].[Na+] [Example 97, trisodium salt of (S)-aspartic acid-N-monoacetic acid]
- Appearance after kept for 60 days ([1]; keeping temperature 70° C.): White slurry
- Content of the compound of the formula [I] in aqueous solution after kept for 60 days ([1]; keeping temperature 70° C.): 76.8 wt. %

SMILES: O=C([O-])CN[C@@H](CC(=O)[O-])C(=O)[O-].[Na+].[Na+].[Na+] [compound 35, trisodium salt of (S)-aspartic acid-N-monoacetic acid, reference compound]
- Appearance after kept for 60 days ([1]; keeping temperature 60° C.): Brown slurry
- Content of the compound of the formula [I] in aqueous solution after kept for 60 days ([1]; keeping temperature 60° C.): 47.3 wt. %

SMILES: O=C([O-])CC(NCCCNC(CC(=O)[O-])C(=O)[O-])C(=O)[O-].[Na+].[Na+].[Na+].[Na+] (stereo not drawn) [Example 119, tetrasodium 1,3-propanediamine-N,N′-disuccinate]
- Appearance after kept for 60 days ([1]; keeping temperature 65° C.): Light yellow slurry
- Content of the compound of the formula [I] in aqueous solution after kept for 60 days ([1]; keeping temperature 65° C.): 65.4 wt. %

SMILES: O=C([O-])CN(CC(=O)[O-])c1ccccc1C(=O)[O-].[Na+].[Na+].[Na+] [Example 105, trisodium salt of anthranilic acid-N,N-diacetic acid]
- Appearance after kept for 60 days ([1]; keeping temperature 75° C.): Colorless transparent aqueous solution
- Content of the compound of the formula [I] in aqueous solution after kept for 60 days ([1]; keeping temperature 75° C.): 49.8 wt. %

SMILES: O=C([O-])C[C@H](NCC(O)CN[C@@H](CC(=O)[O-])C(=O)[O-])C(=O)[O-].[Na+].[Na+].[Na+].[Na+] [Example 116, tetrasodium (S,S)-2-hydroxy-1,3-propanediamine-N,N′-disuccinate]
- Appearance after kept for 60 days ([1]; keeping temperature 75° C.): Colorless transparent aqueous solution
- Content of the compound of the formula [I] in aqueous solution after kept for 60 days ([1]; keeping temperature 75° C.): 44.7 wt. %

SMILES: O=C(O)CC(NCCCNC(CC(=O)O)C(=O)O)C(=O)O (stereo not drawn) [Example 68, 1,3-propanediaminedisuccinic acid]
- Compression strength after stored for 2 months [2, 3]: 1.2 Kg/cm^2

SMILES: O=C([O-])CN(CC(=O)[O-])c1ccccc1C(=O)[O-].[Fe+3] [Example 43, iron salt of anthranilic acid-N,N-diacetic acid]
- Compression strength after stored for 2 months ([2]; Load 200 (table head [Kg]; text 200 g/cm^2)): 0.9 Kg/cm^2

Now from value to compound:

- Appearance after kept for 60 days ([1]; keeping temperature 75° C.): Dark blue transparent aqueous solution
- Content of the compound of the formula [I] in aqueous solution after kept for 60 days ([1]; keeping temperature 75° C.): 38.7 wt. %
SMILES: O=C([O-])C[C@H](NCC(O)CN[C@@H](CC(=O)[O-])C(=O)[O-])C(=O)[O-].[Cu+2].[Na+].[Na+] [compound 52, copper disodium (S,S)-2-hydroxy-1,3-propanediamine-N,N′-disuccinate, reference compound]

- Appearance after kept for 60 days ([1]; keeping temperature 75° C.): Colorless transparent aqueous solution
SMILES: CN(CC(=O)[O-])CC(=O)[O-].[Na+].[Na+] [Example 104, disodium N-methyliminodiacetate]

- Appearance after kept for 60 days ([1]; keeping temperature 75° C.): Colorless transparent aqueous solution
- Content of the compound of the formula [I] in aqueous solution after kept for 60 days ([1]; keeping temperature 75° C.): 49.5 wt. %
SMILES: O=C([O-])C[C@@H](C(=O)[O-])N(CC(=O)[O-])CC(=O)[O-].[Na+].[Na+].[Na+].[Na+] [Example 90, tetrasodium salt of (S)-aspartic acid-N,N-diacetic acid]

- Appearance after kept for 60 days ([1]; keeping temperature 75° C.): Colorless transparent aqueous solution
- Content of the compound of the formula [I] in aqueous solution after kept for 60 days ([1]; keeping temperature 75° C.): 44.3 wt. %
SMILES: O=C([O-])C[C@H](NCCCN[C@@H](CC(=O)[O-])C(=O)[O-])C(=O)[O-].[Na+].[Na+].[Na+].[Na+] [Example 115, tetrasodium (S,S)-1,3-propanediamine-N,N′-disuccinate]

- Appearance after kept for 60 days ([1]; keeping temperature 75° C.): Dark blue transparent aqueous solution
- Content of the compound of the formula [I] in aqueous solution after kept for 60 days ([1]; keeping temperature 75° C.): 47.9 wt. %
SMILES: O=C([O-])C[C@H](NCC(O)CN[C@@H](CC(=O)[O-])C(=O)[O-])C(=O)[O-].[Cu+2].[Na+].[Na+] [Example 128, copper disodium (S,S)-2-hydroxy-1,3-propanediamine-N,N′-disuccinate]

- Appearance after kept for 60 days ([1]; keeping temperature 70° C.): White slurry
- Content of the compound of the formula [I] in aqueous solution after kept for 60 days ([1]; keeping temperature 70° C.): 78.4 wt. %
SMILES: O=C([O-])C[C@H](NCCCN[C@@H](CC(=O)[O-])C(=O)[O-])C(=O)[O-].[Na+].[Na+].[Na+].[Na+] [Example 120, tetrasodium (S,S)-1,3-propanediamine-N,N′-disuccinate]

- Appearance after kept for 60 days ([1]; keeping temperature 65° C.): Light yellow slurry
- Content of the compound of the formula [I] in aqueous solution after kept for 60 days ([1]; keeping temperature 65° C.): 64.5 wt. %
SMILES: CN(CC(=O)[O-])CC(=O)[O-].[Na+].[Na+] [Example 107, disodium N-methyliminodiacetate]

- Appearance after kept for 60 days ([1]; keeping temperature 75° C.): Colorless transparent aqueous solution
- Content of the compound of the formula [I] in aqueous solution after kept for 60 days ([1]; keeping temperature 75° C.): 41.8 wt. %
SMILES: O=C([O-])C[C@H](NCC(O)CN[C@@H](CC(=O)[O-])C(=O)[O-])C(=O)[O-].[Na+].[Na+].[Na+].[Na+] [compound 47, tetrasodium (S,S)-2-hydroxy-1,3-propanediamine-N,N′-disuccinate, reference compound]

- Appearance after kept for 60 days ([1]; keeping temperature 70° C.): White slurry
- Content of the compound of the formula [I] in aqueous solution after kept for 60 days ([1]; keeping temperature 70° C.): 76.9 wt. %
SMILES: O=C([O-])CN(CCS(=O)(=O)[O-])CC(=O)[O-].[Na+].[Na+].[Na+] [Example 108, trisodium salt of taurine-N,N-diacetic acid]

- Appearance after kept for 60 days ([1]; keeping temperature 75° C.): Colorless transparent aqueous solution
- Content of the compound of the formula [I] in aqueous solution after kept for 60 days ([1]; keeping temperature 75° C.): 49.8 wt. %
SMILES: C[C@@H](C(=O)[O-])N(CC(=O)[O-])CC(=O)[O-].[Na+].[Na+].[Na+] [Example 92, trisodium salt of (S)-α-alanine-N,N-diacetic acid]

- Appearance after kept for 60 days ([1]; keeping temperature 70° C.): White slurry
- Content of the compound of the formula [I] in aqueous solution after kept for 60 days ([1]; keeping temperature 70° C.): 78.5 wt. %
SMILES: O=C([O-])C[C@@H](C(=O)[O-])N(CC(=O)[O-])CC(=O)[O-].[Na+].[Na+].[Na+].[Na+] [Example 98, tetrasodium salt of (S)-aspartic acid-N,N-diacetic acid]

- Compression strength after stored for 2 months ([2]; Load 300 (table head [Kg]; text 300 g/cm^2)): 0.8 Kg/cm^2
SMILES: CN(CC(=O)[O-])CC(=O)[O-].[Na+].[Na+] [Example 32, disodium N-methyliminodiacetate]

- Compression strength after stored for 2 months [2, 3]: 2.5 Kg/cm^2
SMILES: O=C([O-])CN(CCS(=O)(=O)[O-])CC(=O)[O-].[Na+].[Na+].[Na+] [compound 9, trisodium salt of taurine-N,N-diacetic acid, reference compound]
